Experimental data taken from patent US9650402B2, “Heterodinuclear platinum-ruthenium complexes, preparation thereof and therapeutic use thereof” (City University of Hong Kong, priority 2015, dated 2017).

Assays:
[1] = test system: A2780, A2780cisR, A549, A549cisR and HeLa; assay: MTT cytotoxicity assay, all cell lines tested; format: cell-based; conditions: each of the cell lines, 72-h exposure
Experimental: Human ovarian carcinoma (A2780) and cDDP-resistant A2780 (A2780cisR) cells were cultured in RPMI 1640 with 10% FBS and 100 units penicillin/streptomycin. HeLa cells, adenocarcinomic human alveolar basal epithelial cells (A549) and cDDP-resistant A549 (A549cisR) cells were cultured in DMEM containing 10% FBS and 100 units penicillin/streptomycin. All cells were incubated at 37° C. under 5% CO2. The cDDP-resistant cells, A549cisR and A2780cisR were generated from their parental A549 or A2780 cells. Briefly, A549 or A2780 cells were cultured in complete medium containing 0.5 μg/mL cisplatin at the beginning for the first screening, and the remaining cells were cultured in complete medium containing 1.0 μg/mL cisplatin for at least 4 weeks until the resistance was obtained.
An MTT assay was used to evaluate the cytotoxicity of cDDP and the subject heterodinuclear Pt—Ru compounds Ruthplatin-1, 2, 3 and 4 against A2780, A2780cisR, A549, A549cisR and HeLa. The results of this assay are depicted in Table 1 of FIG. 9. […]
For each of these assays, cells were seeded in 96-well plates at a density of 1,500 cells per well (for A2780, A549 and HeLa) or 2,500 cells per well (for A2780cisR and A549cisR) and were incubated till their confluency reached about 30%. […] The absorbance was tested at 570 and 630 nm. […]

[2] = test system: HeLa cells; assay: MTT cytotoxicity assay, HeLa cells; format: cell-based; conditions: 72-h exposure
Experimental: (§1) Human ovarian carcinoma (A2780) and cDDP-resistant A2780 (A2780cisR) cells were cultured in RPMI 1640 with 10% FBS and 100 units penicillin/streptomycin. HeLa cells, adenocarcinomic human alveolar basal epithelial cells (A549) and cDDP-resistant A549 (A549cisR) cells were cultured in DMEM containing 10% FBS and 100 units penicillin/streptomycin. All cells were incubated at 37° C. under 5% CO2. The cDDP-resistant cells, A549cisR and A2780cisR were generated from their parental A549 or A2780 cells. Briefly, A549 or A2780 cells were cultured in complete medium containing 0.5 μg/mL cisplatin at the beginning for the first screening, and the remaining cells were cultured in complete medium containing 1.0 μg/mL cisplatin for at least 4 weeks until the resistance was obtained. An MTT assay was used to evaluate the cytotoxicity of cDDP and the subject heterodinuclear Pt—Ru compounds Ruthplatin-1, 2, 3 and 4 against A2780, A2780cisR, A549, A549cisR and HeLa. The results of this assay are depicted in Table 1 of FIG. 9. […] The results of this assay are depicted in Table 2 of FIG. 10. […] After incubating for 72 h, the original medium was removed and 0.2 mL fresh medium containing 1 mg/mL MTT was added to each well. After staining for 4 h, the medium was replaced by DMSO. The absorbance was tested at 570 and 630 nm. A control was set as medium without compound. […]

[3] = test system: A2780cisR cells; assay: MTT cytotoxicity assay, cDDP-resistant A2780cisR cells; format: cell-based, Human; conditions: 72-h exposure
Experimental: as §1

[4] = test system: A549cisR cells; assay: MTT cytotoxicity assay, cDDP-resistant A549cisR cells; format: cell-based, human; conditions: 72-h exposure
Experimental: as §1

[5] = test system: A549 cells; assay: MTT cytotoxicity assay, A549 cells; format: cell-based, human; conditions: 72-h exposure
Experimental: as §1

Row | SMILES | IC50 values compared with cDDP [1] | activity against the proliferation of HeLa cells [2] | RF (resistant factor) = IC50 in A2780cisR/IC50 in A2780 [3] | RF (resistant factor) = IC50 in A549cisR/IC50 in A549, compared with cisplatin ([4]; A549/A549cisR cells) | cytotoxicity in A549cisR cells (compared with cisplatin) ([4]; A549cisR cells) | cytotoxicity in A549 cells (compared with cisplatin) [5]
1 | Cc1ccc(C(C)C)cc1.[NH3+][Pt-2]([NH3+])([OH])([Cl])([Cl])[O]C(=O)CCc1ccc[n+]([Ru-]2[O]C(=O)C(=O)[O]2)c1 [Ruthplatin-4] | significantly lower than that of cDDP | very active | 2.1 | decreases | significantly increased cytotoxicity | significantly increased cytotoxicity
2 | [NH2][Pt]([NH2])([Cl])[Cl] [cDDP, Cisplatin, reference compound] |  |  | 17.4 |  |  | 
